Assay type in all cases: cell-based, human
Details in all cases: 72 hours of treatment

In one assay the test system is LNCaP cells. As to the kind of experiment: Cell viability (AlamarBlue), LNCaP prostate cancer cells. The arrangement: key to EC50 (μM) in LNCaP cells: Inactive: less than 50% inhibition at the highest concentration tested at 50 μM. How it is done:
(§1) In another exemplary method, half maximal effective concentration (EC50) was determined for some compounds and their isomers as disclosed herein in a variety of human cancer cell lines. In brief, cells from two prostate cancer cell lines (LNCaP, 22RV1), one glioblastoma cell line (U87), one breast cancer cell line (MCF7), a glioma cell line (LN18), a normal prostate cell line (RWPE1), and a glioblastoma cell line (T98G) were plated in a multi-well plate. After 24 hours, one of the compounds herein was added to the well at increasing concentrations. After 72 hours of treatment, cell viability was assessed using AlamrBlue® (Invitrogen) and fluorescence was read using the CLARIOstar Plus Multilabel Plate Reader (BMG Labtech). Samples were normalized to no treatment controls. EC50 values were determined using GraphPad Prism.
(In general: Resazurin is reduced to fluorescent resorufin, in cell work by metabolically active cells.)

The next assay relates to 22RV1 cells. As to the kind of experiment: Cell viability (AlamarBlue), 22RV1 prostate cancer cells. The arrangement: key to EC50 (μM) in 22RV1 cells: Inactive: less than 50% inhibition at the highest concentration tested at 50 μM. How it is done: as §1
A further assay concerns U87 cells. Kind of assay: Cell viability (AlamarBlue), U87 glioblastoma cells. The arrangement: key to EC50 (μM) in U87 cells: Inactive: less than 50% inhibition at the highest concentration tested at 50 μM. How it is done:
as §1

Usually EC50 stands for the concentration needed to bring the measured effect to its halfway point.

For the compound `Cc1cc(NC(=O)NC(=O)C2CCOC2)ccc1Oc1ncc(Cl)cn1` (racemic) [Compound 5, rac-1-{4-[(5-chloropyrimidin-2-yl)oxy]-3-methylphenyl}-3-[(3R)-oxolane-3-carbonyl]urea], in the assay with LNCaP cells, the “EC50 (μM) in LNCaP cells” value was “Inactive”. Moreover, in the assay with 22RV1 cells, the “EC50 (μM) in 22RV1 cells” value is “Inactive”.

In the case of `COC1CCC(C(=O)NC(=O)Nc2ccc(Oc3ncc(C)cn3)c(C)c2)CC1` (single isomer, unassigned) [Compound 27A, 4-methoxy-N-((3-methyl-4-((5-methylpyrimidin-2-yl)oxy)phenyl)carbamoyl)cyclohexane-1-carboxamide], the EC50 is 1.3 µM in the assay on LNCaP cells, 2.8 µM in the assay on 22RV1 cells and 2.1 µM in the assay on U87 cells.

Turning to `COC1CCC(C(=O)NC(=O)Nc2ccc(Oc3ncc(C)cn3)c(C)c2)CC1` (single isomer, unassigned) [Compound 27B, 4-methoxy-N-((3-methyl-4-((5-methylpyrimidin-2-yl)oxy)phenyl)carbamoyl)cyclohexane-1-carboxamide], the concentration for a half-maximal effect (EC50) was determined as 9.8 µM with LNCaP cells, 25 µM in the assay with 22RV1 cells and 23.3 µM with U87 cells.

In the case of `COC1CCC(C(=O)NC(=O)Nc2ccc(Oc3ccc(C(C)C)cn3)c(C)c2)CC1` (single isomer, unassigned) [Compound 34A, N-((4-((5-isopropylpyridin-2-yl)oxy)-3-methylphenyl)carbamoyl)-4-methoxycyclohexane-1-carboxamide], the EC50 was 1.2 µM in the assay with LNCaP cells (Homo sapiens, LNCaP, 72 h); 5.9 µM in the assay on 22RV1 cells (Homo sapiens, 22Rv1, 72 h); 5.5 µM with U87 cells (Homo sapiens, U-87 MG, 72 h).

As to `COC1CCC(C(=O)NC(=O)Nc2ccc(Oc3ccc(C(C)C)cn3)c(C)c2)CC1` (single isomer, unassigned) [Compound 34B, N-((4-((5-isopropylpyridin-2-yl)oxy)-3-methylphenyl)carbamoyl)-4-methoxycyclohexane-1-carboxamide], the “EC50 (μM) in LNCaP cells” value in the assay on LNCaP cells is reported as “Inactive”. Further, the “EC50 (μM) in 22RV1 cells” value with 22RV1 cells is on record as “Inactive”. Further, the “EC50 (μM) in U87 cells” value in the assay on U87 cells is listed as “Inactive”.

For `Cc1cc(NC(=O)NC(=O)C2CCCC2)ccc1Oc1ncc(Cl)cn1` [Compound 3, 1-{4-[(5-chloropyrimidin-2-yl)oxy]-3-methylphenyl}-3-cyclopentanecarbonylurea], the “EC50 (μM) in LNCaP cells” value with LNCaP cells is “Inactive”. For the same compound, the “EC50 (μM) in 22RV1 cells” value in the assay on 22RV1 cells is “Inactive”.

`Cc1cc(NC(=O)NC(=O)C2CCOCC2)ccc1Oc1ncc(Cl)cn1` [Compound 4, 3-{4-[(5-chloropyrimidin-2-yl)oxy]-3-methylphenyl}-1-(oxane-4-carbonyl)urea]: the “EC50 (μM) in LNCaP cells” value in the assay on LNCaP cells was “Inactive”. Further, the “EC50 (μM) in 22RV1 cells” value with 22RV1 cells is “Inactive”.

Regarding `COC1CCC(C(=O)NC(=O)Nc2ccc(Oc3nccn3C)c(C)c2)CC1` (centres unmarked) [Compound 28, 1-(4-methoxycyclohexanecarbonyl)-3-{3-methyl-4-[(1-methyl-1H-imidazol-2-yl)oxy]phenyl}urea], the “EC50 (μM) in LNCaP cells” value in the assay on LNCaP cells is recorded as “Inactive”. Further, in the assay with 22RV1 cells, the “EC50 (μM) in 22RV1 cells” value is “Inactive”. In addition, the “EC50 (μM) in U87 cells” value in the assay with U87 cells was “Inactive”.

`COC1CCC(C(=O)NC(=O)Nc2ccc(Oc3ncc(C(F)(F)F)cn3)c(C)c2)CC1` (centres unmarked) [Compound 29, 1-(4-methoxycyclohexanecarbonyl)-3-(3-methyl-4-{[5-(trifluoromethyl)pyrimidin-2-yl)oxy}phenyl)urea]: the half-maximal effective concentration (EC50) in the assay on LNCaP cells (Homo sapiens, LNCaP, 72 h) turned out to be 6.5 µM; with 22RV1 cells (Homo sapiens, 22Rv1, 72 h), 4.7 µM; in the assay on U87 cells (Homo sapiens, U-87 MG, 72 h), 5.3 µM.

Consider `COC1CCC(C(=O)NC(=O)Nc2ccc(Oc3ncc(C(C)C)cn3)c(C)c2)CC1` (centres unmarked) [Compound 30, 1-(4-methoxycyclohexanecarbonyl)-3-(3-methyl-4-{[5-(propan-2-yl)pyrimidin-2-yl)oxy}phenyl)urea], for which the EC50 with LNCaP cells (Homo sapiens, LNCaP, 72 h) stood at 8.5 µM; with 22RV1 cells (Homo sapiens, 22Rv1, 72 h), 14.4 µM; in the assay with U87 cells (Homo sapiens, U-87 MG, 72 h) it was 12.2 µM.

As for `COC1CCC(C(=O)NC(=O)Nc2ccc(Oc3ccc(C)cn3)c(C)c2)CC1` (centres unmarked) [Compound 32, 1-(4-methoxycyclohexanecarbonyl)-3-{3-methyl-4-[(5-methylpyridin-2-yl)oxy]phenyl}urea], the concentration giving a half-maximal response (EC50) in the assay with LNCaP cells (Homo sapiens, LNCaP, 72 h) came out at 34 µM; in the assay with 22RV1 cells (Homo sapiens, 22Rv1, 72 h) it was 35 µM. Further, in the assay with U87 cells, the “EC50 (μM) in U87 cells” value is listed as “Inactive”.

Consider `COC1CCC(C(=O)NC(=O)Nc2ccc(Oc3ccc(C(F)(F)F)cn3)c(C)c2)CC1` (centres unmarked) [Compound 33, 4-methoxy-N-((3-methyl-4-((5-(trifluoromethyl)pyridin-2-yl)oxy)phenyl)carbamoyl)cyclohexane-1-carboxamide], for which the “EC50 (μM) in LNCaP cells” value in the assay with LNCaP cells is “Inactive”. The “EC50 (μM) in 22RV1 cells” value in the assay on 22RV1 cells was “Inactive”. Besides, in the assay on U87 cells, the “EC50 (μM) in U87 cells” value is recorded as “Inactive”.

Take `COC1CC(C(=O)NC(=O)Nc2ccc(Oc3cnc(N4CCN(C)CC4)nc3)c(C)c2)C1` (centres unmarked) [Compound 35, 3-methoxy-N-((3-methyl-4-((2-(4-methylpiperazin-1-yl)pyrimidin-5-yl)oxy)phenyl)carbamoyl)cyclobutane-1-carboxamide]: the “EC50 (μM) in LNCaP cells” value with LNCaP cells was “Inactive”. Besides, the “EC50 (μM) in 22RV1 cells” value in the assay with 22RV1 cells is “Inactive”. The compound also came in with a concentration giving a half-maximal response (EC50) with U87 cells (Homo sapiens, U-87 MG, 72 h) of 49 µM.

Turning to `COC1CCC(C(=O)NC(=O)Nc2ccc(Oc3cnc(N4CCN(C)CC4)nc3)c(C)c2)CC1` (centres unmarked) [Compound 36, 4-methoxy-N-((3-methyl-4-((2-(4-methylpiperazin-1-yl)pyrimidin-5-yl)oxy)phenyl)carbamoyl)cyclohexane-1-carboxamide], the 50% effective concentration (EC50) in the assay on LNCaP cells (Homo sapiens, LNCaP, 72 h) is 34 µM; in the assay on 22RV1 cells (Homo sapiens, 22Rv1, 72 h) it was 34 µM; in the assay on U87 cells (Homo sapiens, U-87 MG, 72 h), 31 µM.

Turning to `O=C(NC(=O)C1CCC(OCC2CC2)CC1)Nc1ccc(Oc2ncc(Cl)cn2)c(F)c1` (centres unmarked) [Compound 37, N-((4-((5-chloropyrimidin-2-yl)oxy)-3-fluorophenyl)carbamoyl)-4-(cyclopropylmethoxy)cyclohexane-1-carboxamide], in the assay on LNCaP cells, the “EC50 (μM) in LNCaP cells” value is reported as “Inactive”. The “EC50 (μM) in 22RV1 cells” value with 22RV1 cells was “Inactive”. The “EC50 (μM) in U87 cells” value in the assay with U87 cells is reported as “Inactive”.

Regarding `COC1(C(=O)NC(=O)Nc2ccc(Oc3ccc(Cl)cn3)c(C)c2)CC1` [Compound 65, N-((4-((5-chloropyridin-2-yl)oxy)-3-methylphenyl)carbamoyl)-1-methoxycyclopropane-1-carboxamide], the “EC50 (μM) in 22RV1 cells” value with 22RV1 cells is reported as “Inactive”. Also, the “EC50 (μM) in U87 cells” value with U87 cells was “Inactive”.

On to `COC1CC(C(=O)NC(=O)Nc2cc(C)c(Oc3ccc(F)cn3)c(F)c2)C1` (centres unmarked) [Compound 72, N-((3-fluoro-4-((5-fluoropyridin-2-yl)oxy)-5-methylphenyl)carbamoyl)-3-methoxycyclobutane-1-carboxamide], for which the EC50 with 22RV1 cells (Homo sapiens, 22Rv1, 72 h) turned out to be 0.91 µM; in the assay on U87 cells (Homo sapiens, U-87 MG, 72 h), 1.1 µM.

Turning to `COC1CC(C(=O)NC(=O)Nc2cc(C)c(Oc3ncccn3)c(F)c2)C1` (centres unmarked) [Compound 74, N-((3-fluoro-5-methyl-4-(pyrimidin-2-yloxy)phenyl)carbamoyl)-3-methoxycyclobutane-1-carboxamide], the concentration giving a half-maximal response (EC50) in the assay on 22RV1 cells (Homo sapiens, 22Rv1, 72 h) amounted to 1.65 µM; in the assay on U87 cells (Homo sapiens, U-87 MG, 72 h), 2.5 µM.

Turning to `COC1CCC(C(=O)NC(=O)Nc2ccc(Oc3ccc(C4CC4)cn3)c(C)c2)CC1` (centres unmarked) [Compound 75, N-((4-((5-cyclopropylpyridin-2-yl)oxy)-3-methylphenyl)carbamoyl)-4-methoxycyclohexane-1-carboxamide], in the assay with U87 cells, the “EC50 (μM) in U87 cells” value is on record as “Inactive”.

The compound `COC1CC(C(=O)NC(=O)Nc2cc(C)c(Oc3nccs3)c(F)c2)C1` (centres unmarked) [Compound 77, N-((3-fluoro-5-methyl-4-(thiazol-2-yloxy)phenyl)carbamoyl)-3-methoxycyclobutanecarboxamide] yielded an EC50 in the assay on U87 cells (Homo sapiens, U-87 MG, 72 h) of 22 µM.

Take `COC1CC(C)(C(=O)NC(=O)Nc2ccc(Oc3ccc(Cl)cn3)c(C)c2)C1` (centres unmarked) [Compound 79, N-((4-((5-chloropyridin-2-yl)oxy)-3-methylphenyl)carbamoyl)-3-methoxy-1-methylcyclobutane-1-carboxamide]: the “EC50 (μM) in U87 cells” value in the assay with U87 cells is “Inactive”.

For the compound `Cc1cc(NC(=O)NC(=O)C2CC(O)C2)ccc1Oc1ccc(Cl)cn1` (centres unmarked) [Compound 80, N-((4-((5-chloropyridin-2-yl)oxy)-3-methylphenyl)carbamoyl)-3-hydroxycyclobutane-1-carboxamide], the “EC50 (μM) in U87 cells” value in the assay on U87 cells was “Inactive”.

For the compound `COC1CC1C(=O)NC(=O)Nc1ccc(Oc2ncc(Cl)cn2)c(C)c1` (centres unmarked) [Compound 81, N-((4-((5-chloropyrimidin-2-yl)oxy)-3-methylphenyl)carbamoyl)-2-methoxycyclopropane-1-carboxamide], the “EC50 (μM) in U87 cells” value in the assay on U87 cells is “Inactive”.

Consider `COC1CC1C(=O)NC(=O)Nc1ccc(Oc2ccc(Cl)cn2)c(C)c1` (centres unmarked) [Compound 82, N-((4-((5-chloropyridin-2-yl)oxy)-3-methylphenyl)carbamoyl)-2-methoxycyclopropane-1-carboxamide], for which the “EC50 (μM) in U87 cells” value in the assay on U87 cells was “Inactive”.

As for `COC12CC(C(=O)NC(=O)Nc3ccc(Oc4nccs4)c(C)c3)(C1)C2` [Compound 83, 3-methoxy-N-((3-methyl-4-(thiazol-2-yloxy)phenyl)carbamoyl)bicyclo[1.1.1]pentane-1-carboxamide], it took 0.33 µM to reach a half-maximal effect in the assay with U87 cells (Homo sapiens, U-87 MG, 72 h) (EC50).

`COC12CC(C(=O)NC(=O)Nc3ccc(Oc4ccc(F)cn4)c(C)c3)(C1)C2` [Compound 89, N-((4-((5-fluoropyridin-2-yl)oxy)-3-methylphenyl)carbamoyl)-3-methoxybicyclo[1.1.1]pentane-1-carboxamide] showed an EC50 in the assay on U87 cells (Homo sapiens, U-87 MG, 72 h) of 0.2 µM.

(Values after patent publication US12404242B2, “Compositions and methods for making and using small molecules in the treatment of cancer” (Reglagene, Inc., priority 2021, dated 2025).)
